# Measurements published in ChEMBL document CHEMBL1201862, “PubChem BioAssay data set” (2004).
#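 Assay format: 96-well plates, 48-hour exposure. GI50 marks 50% less growth.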 Activity calls are given as the source filed them. Rule as the data show it: active = GI50 up to about 1.1 µM and inactive = higher.
# How the values were obtained:
# Experiment in all cases: NCI anticancer screen, dose series, 48 h
# [1] = system: HL-60
# [2] = system: OVCAR-4
# [3] = system: SK-MEL-2
# [4] = system: SK-MEL-5
# [5] = system: SN12C
# [6] = system: LOX IMVI
# [7] = system: NCI-H23
# [8] = system: COLO 205
# [9] = system: HCC 2998
# [10] = system: UO-31
# [11] = system: OVCAR-5
# [12] = system: OVCAR-3
# [13] = system: Hs-578T
# [14] = system: EKVX
# [15] = system: HOP-92
# [16] = system: Malme-3M
# [17] = system: A498
# [18] = system: UACC-257
# [19] = system: T47D
# [20] = system: OVCAR-8
# [21] = system: PC-3
# [22] = system: SK-MEL-28
# [23] = system: RPMI-8226
# [24] = system: SR
# [25] = system: SK-OV-3
# [26] = system: ACHN
# [27] = system: NCI/ADR-RES
# [28] = system: TK-10
# [29] = system: U-251
# [30] = system: SF-295
# [31] = system: NCI-H460
# [32] = system: UACC-62
# [33] = system: HCT-116
# [34] = system: SF-268
# [35] = system: RXF 393
# [36] = system: HOP-62
# [37] = system: SNB-19
# [38] = system: MDA-MB-231
# [39] = system: 786-0
# [40] = system: BT-549
# [41] = system: IGROV-1
# [42] = system: CCRF-CEM
# [43] = system: MCF7
# [44] = system: SNB-75
# [45] = system: CAKI-1
# [46] = system: MDA-MB-435
# [47] = system: MOLT-4
# [48] = system: HT-29
# [49] = system: SF-539
# [50] = system: HCT-15
# [51] = system: NCI-H226
# [52] = system: NCI-H522
# [53] = system: A549
# [54] = system: DU-145
# [55] = system: K562
# [56] = system: M14
# [57] = system: KM12
# [58] = system: SW-620
# [59] = system: MDA-N
smiles,measurement,setting,value
COCCN(C(=O)c1ccccc1)C1CCC(=O)c2[nH]c3ccccc3c21 (stereo not given),GI50,[1],8.87 µM (inactive)
same,GI50,[2],6.81 µM (inactive)
same,GI50,[3],5.38 µM (inactive)
same,GI50,[4],7.14 µM (inactive)
same,GI50,[5],7.85 µM (inactive)
same,GI50,[6],> 21.1 µM (inactive)
same,GI50,[7],17.7 µM (inactive)
same,GI50,[8],15.5 µM (inactive)
same,GI50,[9],17.1 µM (inactive)
same,GI50,[10],9.71 µM (inactive)
same,GI50,[11],16.9 µM (inactive)
same,GI50,[12],12.5 µM (inactive)
same,GI50,[13],15.5 µM (inactive)
same,GI50,[14],10.7 µM (inactive)
same,GI50,[15],12.1 µM (inactive)
same,GI50,[16],7.21 µM (inactive)
same,GI50,[17],19.1 µM (inactive)
same,GI50,[18],> 46.9 µM (inactive)
same,GI50,[19],16.2 µM (inactive)
same,GI50,[20],6.85 µM (inactive)
same,GI50,[21],5.25 µM (inactive)
same,GI50,[22],6.07 µM (inactive)
same,GI50,[23],17.7 µM (inactive)
same,GI50,[24],3.2 µM (inactive)
same,GI50,[25],15.5 µM (inactive)
same,GI50,[26],16.7 µM (inactive)
same,GI50,[27],19.3 µM (inactive)
same,GI50,[28],20.3 µM (inactive)
same,GI50,[29],2.08 µM (inactive)
same,GI50,[30],> 41 µM (inactive)
same,GI50,[31],12.8 µM (inactive)
same,GI50,[32],17.8 µM (inactive)
same,GI50,[33],13.1 µM (inactive)
same,GI50,[34],9.12 µM (inactive)
same,GI50,[35],5.83 µM (inactive)
same,GI50,[36],5.22 µM (inactive)
same,GI50,[37],11.2 µM (inactive)
same,GI50,[38],4.23 µM (inactive)
same,GI50,[39],3.4 µM (inactive)
same,GI50,[40],2.7 µM (inactive)
same,GI50,[41],3.65 µM (inactive)
same,GI50,[42],3.64 µM (inactive)
same,GI50,[43],6.27 µM (inactive)
same,GI50,[44],5.62 µM (inactive)
same,GI50,[45],4.58 µM (inactive)
same,GI50,[46],6.87 µM (inactive)
same,GI50,[47],6.64 µM (inactive)
same,GI50,[48],9.98 µM (inactive)
same,GI50,[49],7.1 µM (inactive)
same,GI50,[50],16.4 µM
same,GI50,[51],6.28 µM (inactive)
same,GI50,[52],2.59 µM (inactive)
same,GI50,[53],15.6 µM (inactive)
same,GI50,[54],14.7 µM (inactive)
same,GI50,[55],3.85 µM (inactive)
same,GI50,[56],7.11 µM (inactive)
same,GI50,[57],8.41 µM (inactive)
same,GI50,[58],8.28 µM (inactive)
O=C(Nc1ccccc1Cl)c1cc(S(=O)(=O)Nc2n[nH]c(=O)n2-c2ccccc2)c(S)cc1Cl,GI50,[1],> 100 µM (inactive)
same,GI50,[2],> 100 µM (inactive)
same,GI50,[3],> 100 µM (inactive)
same,GI50,[4],> 100 µM (inactive)
same,GI50,[5],> 100 µM (inactive)
same,GI50,[6],> 100 µM (inactive)
same,GI50,[7],> 100 µM (inactive)
same,GI50,[8],> 100 µM (inactive)
same,GI50,[9],> 100 µM (inactive)
same,GI50,[10],> 100 µM (inactive)
same,GI50,[11],> 100 µM (inactive)
same,GI50,[12],> 100 µM (inactive)
same,GI50,[13],> 100 µM (inactive)
same,GI50,[14],> 100 µM (inactive)
same,GI50,[15],> 100 µM (inactive)
same,GI50,[16],> 100 µM (inactive)
same,GI50,[17],> 100 µM (inactive)
same,GI50,[18],> 100 µM (inactive)
same,GI50,[19],> 100 µM (inactive)
same,GI50,[20],> 100 µM (inactive)
same,GI50,[22],> 100 µM (inactive)
same,GI50,[23],> 100 µM (inactive)
same,GI50,[24],> 100 µM (inactive)
same,GI50,[59],> 100 µM (inactive)
same,GI50,[25],> 100 µM (inactive)
same,GI50,[27],> 100 µM (inactive)
same,GI50,[29],> 100 µM (inactive)
same,GI50,[30],> 100 µM (inactive)
same,GI50,[31],> 100 µM (inactive)
same,GI50,[32],> 100 µM (inactive)
same,GI50,[33],> 10 µM (inactive)
same,GI50,[34],> 100 µM (inactive)
same,GI50,[35],> 100 µM (inactive)
same,GI50,[36],> 100 µM (inactive)
same,GI50,[37],92.3 µM (inactive)
same,GI50,[38],> 100 µM (inactive)
same,GI50,[39],> 100 µM (inactive)
same,GI50,[40],> 100 µM (inactive)
same,GI50,[41],> 100 µM (inactive)
same,GI50,[42],> 100 µM (inactive)
same,GI50,[43],> 100 µM (inactive)
same,GI50,[45],> 100 µM (inactive)
same,GI50,[46],> 100 µM (inactive)
same,GI50,[47],> 100 µM (inactive)
same,GI50,[48],> 100 µM (inactive)
same,GI50,[49],> 100 µM (inactive)
same,GI50,[50],> 100 µM
same,GI50,[51],> 100 µM (inactive)
same,GI50,[54],> 100 µM (inactive)
same,GI50,[56],> 100 µM (inactive)
same,GI50,[57],> 100 µM (inactive)
same,GI50,[58],> 100 µM (inactive)
